Patent publication US12104178B2, “DHFR tunable protein regulation” (Obsidian Therapeutics, Inc., priority 2017, dated 2024)

What was measured:
human donor T cells [1] = assay: Shield-1 concentration and time dependent IL12 p40 in human T cells (Tables 94-96); type: cell-based; details: 24 h
human donor T cells [2] = assay: as above; type: cell-based; design: IL12 levels in T cells (IL12 p40, MSD): unit not given beside the values; details: for EC50: IL12 p40 from OT-IL12-026 T cells; for IL12 levels in T cells (IL12 p40, MSD): OT-IL12-026 T cells, 24 hours
Experimental: On day 1, cells were transduced with lentivirus for construct OT-IL12-026 at MOIs of 40, 13.3 or 4.4. […] Cells were then plated at 100,000 per well on U-bottom 96-well plate. On day 14, cells were treated for 24 hours with varying concentrations of Shield-1 or vehicle control. On day 15, the supernatant was harvested and IL12 p40 levels were measured by MSD assay. In the Table 94, MOI stands for multiplicity of infection.
A time course experiment was also performed using Shield-1 at a dose of 1 μM. T cells transduced with OT-IL12-020, OT-IL12-026 or empty vector were treated with Shield-1 or vehicle control for 4, 8, 16 and 24 hours. IL12 p40 levels were measured using MSD assay. The stabilization ratio was measured as the ratio of expression of IL12 in the presence of the stimulus to the expression in the absence of the stimulus.

HCT-116 = assay: DD regulated IL2, IL2 ELISA with Shield-1 dose; type: cell-based, human; details: read-out: EC50 of Shield-1, IL2 ELISA (FIG. 58); HCT-116 transduced with OT-IL2-001
From the text: OT-IL2-001 (FKBP) was transduced into human colorectal carcinoma line, HCT-116.

SMILES: CC[C@H](C(=O)N1CCCC[C@H]1C(=O)O[C@H](CCc1ccc(OC)c(OC)c1)c1cccc(OCCN2CCOCC2)c1)c1cc(OC)c(OC)c(OC)c1 [Shield-1]
- Shield-1 concentration at which viability was reduced (human donor T cells [1]): greater than 5 μM
- EC50 (human donor T cells [2]; MOI 4.4): 84 nM
- EC50 (human donor T cells [2]; MOI 13.3): 94 nM
- EC50 (human donor T cells [2]; MOI 40): 130 nM
- IL12 levels in T cells (IL12 p40, MSD) (human donor T cells [2]; MOI = 4.4, Shield-1 0.1 nM): 49.44
- IL12 levels in T cells (IL12 p40, MSD) (human donor T cells [2]; MOI = 4.4, Shield-1 1 nM): 50.44
- IL12 levels in T cells (IL12 p40, MSD) (human donor T cells [2]; MOI = 4.4, Shield-1 5 nM): 50.44
- IL12 levels in T cells (IL12 p40, MSD) (human donor T cells [2]; MOI = 4.4, Shield-1 10 nM): 178.18
- IL12 levels in T cells (IL12 p40, MSD) (human donor T cells [2]; MOI = 4.4, Shield-1 50 nM): 357.11
- IL12 levels in T cells (IL12 p40, MSD) (human donor T cells [2]; MOI = 4.4, Shield-1 100 nM): 710.56
- IL12 levels in T cells (IL12 p40, MSD) (human donor T cells [2]; MOI = 4.4, Shield-1 500 nM): 1284.95
- IL12 levels in T cells (IL12 p40, MSD) (human donor T cells [2]; MOI = 4.4, Shield-1 1000 nM): 1152.28
- IL12 levels in T cells (IL12 p40, MSD) (human donor T cells [2]; MOI = 4.4, Shield-1 2000 nM): 1071.54
- IL12 levels in T cells (IL12 p40, MSD) (human donor T cells [2]; MOI = 13.3, Shield-1 0.1 nM): 48.10
- IL12 levels in T cells (IL12 p40, MSD) (human donor T cells [2]; MOI = 13.3, Shield-1 1 nM): 48.61
- IL12 levels in T cells (IL12 p40, MSD) (human donor T cells [2]; MOI = 13.3, Shield-1 5 nM): 49.54
- IL12 levels in T cells (IL12 p40, MSD) (human donor T cells [2]; MOI = 13.3, Shield-1 10 nM): 220.08
- IL12 levels in T cells (IL12 p40, MSD) (human donor T cells [2]; MOI = 13.3, Shield-1 50 nM): 420.72
- IL12 levels in T cells (IL12 p40, MSD) (human donor T cells [2]; MOI = 13.3, Shield-1 100 nM): 972.56
- IL12 levels in T cells (IL12 p40, MSD) (human donor T cells [2]; MOI = 13.3, Shield-1 500 nM): 1307.70
- IL12 levels in T cells (IL12 p40, MSD) (human donor T cells [2]; MOI = 13.3, Shield-1 1000 nM): 1559.43
- IL12 levels in T cells (IL12 p40, MSD) (human donor T cells [2]; MOI = 13.3, Shield-1 2000 nM): 1577.99
- IL12 levels in T cells (IL12 p40, MSD) (human donor T cells [2]; MOI = 40, Shield-1 0.1 nM): 88.30
- IL12 levels in T cells (IL12 p40, MSD) (human donor T cells [2]; MOI = 40, Shield-1 1 nM): 80.07
- IL12 levels in T cells (IL12 p40, MSD) (human donor T cells [2]; MOI = 40, Shield-1 5 nM): 88.83
- IL12 levels in T cells (IL12 p40, MSD) (human donor T cells [2]; MOI = 40, Shield-1 10 nM): 374.90
- IL12 levels in T cells (IL12 p40, MSD) (human donor T cells [2]; MOI = 40, Shield-1 50 nM): 608.85
- IL12 levels in T cells (IL12 p40, MSD) (human donor T cells [2]; MOI = 40, Shield-1 100 nM): 1293.01
- IL12 levels in T cells (IL12 p40, MSD) (human donor T cells [2]; MOI = 40, Shield-1 500 nM): 1861.36
- IL12 levels in T cells (IL12 p40, MSD) (human donor T cells [2]; MOI = 40, Shield-1 1000 nM): 2346.15
- IL12 levels in T cells (IL12 p40, MSD) (human donor T cells [2]; MOI = 40, Shield-1 2000 nM): 2330.88
- EC50 (HCT-116): 50 nM
